Where a name gives a salt, the structure may show the parent alone. Read-outs that look alike come from different tables or passages of the source.
How the values were obtained:
[1] = target: T1R1/T1R3 receptor (Felis catus, UniProt E3UMS2); assay type: cell-based; details: for Thres +IMP (0.2 mM): threshold in the presence of 0.2 mM IMP; for EC50 +buffer (alone): compound alone in buffer
Description: (§1) HEK293 cells that stably express T1R3 and inducibly express T1R1 were exposed to transmembrane compounds alone or in combination with one or more amino acids and/or one or more nucleotides to activate the umami receptor. Activation of the T1R1/T1R3 receptor was detected by a change in intracellular calcium levels using a calcium sensitive fluorescent dye. Cells that express T1R3 but not T1R1 were used as a control. A FLIPR® Tetra or a FlexStation® 3 was used for data capture.
In each experiment, serial dilutions of up to 10 mM of the transmembrane compound were added to the T1R1/T1R3-expressing cells.

[2] = target: cat T1R1/T1R3 receptor (Felis catus, UniProt E3UMS2); assay: cell-based; details: for Max resp % of IMP / Max. resp. % of IMP: hek293 cells; for function as activators of T1R1/T1R3: in the presence of alanine, in words
Description: as §1, with “nucleotide derivatives” for “transmembrane compounds”, “dye and/or a luminescent reporter system.” for “dye.”

[3] = in the presence of 20 mM alanine, read-out: EC50-with Ala
[4] = in the presence of 0.2 mM IMP, CNBD = Could not be determined

Structure (SMILES): CC(C)CC(NC(=O)c1ccccc1)C(N)=O (racemic)
- Thres +IMP (0.2 mM) ([1]; CNBD = Could not be determined): 0.1 mM

Structure (SMILES): O=C(O)C1CCCCC1C(=O)Nc1cc(Cl)cc(Cl)c1 (stereo not shown) [2-((3,5-dichlorophenyl)carbamoyl)cyclohexanecarboxylic acid]
- Thres +IMP (0.2 mM) ([1]; CNBD = Could not be determined): 0.03 mM

Structure (SMILES): Nc1ccccc1C(=O)NCCc1ccccc1 [2-amino-N-phenethylbenzamide]
- Thres +IMP (0.2 mM) ([1]; CNBD = Could not be determined): 0.01 mM

Structure (SMILES): CNc1ccccc1C(=O)O[C@H]1C[C@H](n2cnc3c(=O)[nH]c(N)nc32)O[C@@H]1COP(=O)(O)O [2′-Deoxy-3′-O-(N′-methylanthraniloyl) guanosine-5′-O-monophosphate]
- Activity [2]: active
- Thres [2]: 0.0025 mM
- Max resp % of IMP [2]: 23.7 % of IMP
- Max. resp. % of IMP [2]: 23.7 % of IMP
- function as activators of T1R1/T1R3 [2]: activators of T1R1/T1R3

Structure (SMILES): CNc1ccccc1C(=O)O[C@H]1C[C@H](n2cnc3c(N)ncnc32)O[C@@H]1COP(=O)(O)O [2′-Deoxy-3′-O-(N′-methylanthraniloyl)adenosine-5′-O-monophosphate]
- Thres [2]: 0.0025 mM
- EC50 [2, 3]: 0.01 mM

Structure (SMILES): Nc1ncnc2c1ncn2[C@H]1C[C@H](O)[C@@H](COP(=O)(O)O)O1 [2′-Deoxyadenosine 5′-monophosphate]
- Thres [2]: 0.035 mM

Structure (SMILES): Nc1ncnc2c1ncn2[C@H]1CC(OP(=O)(O)O)[C@@H](COP(=O)(O)O)O1 (stereo partly shown) [2′-Deoxyadenosine-3′,5′-O-bisphosphate]
- Thres [2]: 0.005 mM

Structure (SMILES): Nc1ncnc2c1ncn2C1CC(O)C(COP(O)(O)=S)O1 (stereo not shown) [2′-Deoxyadenosine-5′-O-monophosphorothioate]
- Thres [2]: 0.015 mM

Structure (SMILES): Nc1nc2c(ncn2[C@H]2C[C@H](OP(=O)(O)O)[C@@H](COP(=O)(O)O)O2)c(=O)[nH]1 [2′-Deoxyguanosine-3′,5′-O-bisphosphate]
- Activity [2]: active
- Max resp ΔF/F [2]: 1.8925 ΔF/F
- Max resp. (ΔF/F) [2]: 1.8925 ΔF/F
- Thres [2]: 0.005 mM
- Threshold [2]: 0.005 mM
- Max resp % of IMP [2]: 152.3 % of IMP
- Max. resp. % of IMP [2]: 152.3 % of IMP
- EC50 [2, 3]: 0.02 mM
- function as activators of T1R1/T1R3 [2]: activators of T1R1/T1R3

Structure (SMILES): Nc1nc2c(ncn2[C@H]2C[C@H](O)[C@@H](COP(O)(O)=S)O2)c(=O)[nH]1 [2′-Deoxyguanosine-5′-O-monophosphorothioate (5′-dGMPS)]
- Thres [2]: 0.005 mM

Structure (SMILES): Nc1nc2c(ncn2[C@H]2C[C@H](O)[C@@H](COP(O)(O)=S)O2)c(=O)[nH]1 [2′-Deoxyguanosine-5′-O-monophosphorothioate,sodiumsalt]
- Thres [2]: 0.0025 mM
- Max resp % of IMP [2]: 86.7 % of IMP

Structure (SMILES): O=c1[nH]cnc2c1ncn2C1CC(O)C(COP(O)(O)=S)O1 (stereo not shown) [2′-Deoxyinosine-5′-O-monophosphorothioate]
- Thres [2]: 0.025 mM

Structure (SMILES): O=c1ccn([C@H]2C[C@H](O)[C@@H](COP(O)(O)=S)O2)c(=O)[nH]1 [2′-Deoxyuridine-5′-O-monophosphosphorothioate (5′-dUMPS)]
- Activity [2]: active
- Max resp ΔF/F [2]: 0.4200 ΔF/F
- Max resp. (ΔF/F) [2]: 0.4200 ΔF/F
- Thres [2]: 5.000 mM
- Threshold [2]: 5.000 mM
- Max resp % of IMP [2]: 43.4 % of IMP

Structure (SMILES): O=c1ccn([C@H]2C[C@H](O)[C@@H](COP(O)(O)=S)O2)c(=O)[nH]1 [2′-Deoxyuridine-5′-O-monophosphosphorothioate]
- EC50 ([2]; EC50 (mM)): > 30 mM
- EC50 ([2]; EC50-with Ala (mM)): > 30 mM

Structure (SMILES): CC(=O)Nc1ccc(C(=O)Nc2cc(-c3ccccc3)nn2CCO)cc1 [4-acetamido-N-(1-(2-hydroxyethyl)-3-phenyl-1H-pyrazol-5-yl)benzamide]
- EC50 +Alanine (20 mM) [1]: CNBD
- Thres +Alanine (20 mM) [1]: CNBD
- EC50 +buffer (alone) ([1]; CNBD = Could not be determined): CNBD
- Thres +IMP (0.2 mM) ([1]; CNBD = Could not be determined): CNBD

Structure (SMILES): CCCCc1nn(CC(=O)N2CCCC2)c(=O)n1Cc1ccccc1 [4-benzyl-3-butyl-1-(2-oxo-2-(pyrrolidin-1-yl)ethyl)-1H-1,2,4-triazol-5(4H)-one]
- Thres +IMP (0.2 mM) ([1]; CNBD = Could not be determined): 0.1 mM

Structure (SMILES): NC(=O)c1ncn(C2OC(COP(=O)(O)O)C(O)C2O)c1N [5-Aminoimidazole-4-carboxamide-1-β-D-ribofuranosyl 5′-monophosphate]
- Thres [2]: 0.200 mM

Structure (SMILES): O=P(O)(O)OP(=O)(O)OP(=O)(O)OC[C@H]1O[C@@H](n2cnc3c(Cl)ncnc32)[C@H](O)[C@@H]1O [6-Chloropurine riboside-5′-O-triphosphate]
- Thres +Alanine (20 mM) [1]: 0.01 mM
- Activity ([1]; overall call for modulation of T1R1/T1R3: active or N/A (= Not active)): active
- Thres +IMP (0.2 mM) ([1]; CNBD = Could not be determined): 0.003 mM

Structure (SMILES): O=P(O)(O)OC[C@H]1O[C@@H](n2cnc3c(Cl)ncnc32)C(O)C1O (stereo partly shown) [6-Chloropurineriboside-5′-O-monophosphate]
- Thres [2]: 0.0005 mM

Structure (SMILES): Nc1nc2c(ncn2[C@@H]2O[C@H](COP(=O)(O)OP(=O)(O)O)[C@@H](O)[C@H]2O)c(=S)[nH]1 [6-Thioguanosine-5′-O-diphosphate]
- EC50 +buffer (alone) ([1]; CNBD = Could not be determined): CNBD
- EC50 +IMP (0.2 mM) [1, 4]: CNBD
- Max resp ΔF/F +IMP (0.2 mM) [1, 4]: 0.0720 ΔF/F
- Thres +IMP (0.2 mM) ([1]; CNBD = Could not be determined): CNBD

Structure (SMILES): O=P(O)(O)OCC1OC(n2cnc3c(Cl)ncnc32)C(O)C1O (stereo not shown) [6-chloropurineriboside-5′-O-monophosphate]
- function as activators of T1R1/T1R3 [2]: activators of the T1R1/T1R3 receptor

Structure (SMILES): Nc1nc2c(ncn2[C@@H]2O[C@H](COP(=O)(O)O)[C@@H](O)[C@H]2O)c(=S)[nH]1 [6-thioguanosine-5′-O-monophosphate]
- EC50 [2, 3]: 0.0009 mM
- function as activators of T1R1/T1R3 [2]: activators of T1R1/T1R3

Structure (SMILES): Nc1nc2c(nc(Br)n2[C@@H]2O[C@H](COP(=O)(O)O)[C@@H](O)[C@H]2O)c(=O)[nH]1 [8-Bromoguanosine-5′-O-monophosphate]
- Thres [2]: 1 mM

Structure (SMILES): Nc1ncnc2c1nc(Cl)n2[C@@H]1O[C@H](COP(=O)(O)O)[C@@H](O)[C@H]1O [8-Chloroadenosine-5′-O-monophosphate]
- Thres [2]: 0.2 mM
- EC50 ([2]; EC50 (mM), + Alanine (20 mM), Table 15): 0.8 mM
- Max resp % of IMP [2]: 63.6 % of IMP
- Max. resp. % of IMP [2]: 63.6 % of IMP

Structure (SMILES): Nc1ncnc2c1ncn2C1OC(COP(=O)(O)O)C(OP(=O)(O)O)C1O (stereo not shown) [Adenosine 3′,5′-diphosphate sodium salt, adenosine 3′,5′-diphosphate]
- Thres [2]: 0.00025 mM

Structure (SMILES): Nc1ncnc2c1ncn2[C@@H]1O[C@H](COP(=O)(O)O)[C@@H](O)[C@H]1O [Adenosine 5′-monophosphate disodium salt, reference compound]
- Thres [2]: 0.003 mM

Structure (SMILES): Nc1ncnc2c1ncn2C1OC(COP(=O)(O)OS(=O)(=O)O)C(O)C1O (stereo not shown) [Adenosine 5′-phosphosulfate sodium salt, Adenosine 5′-phosphosulfate]
- Thres [2]: 0.008 mM
- EC50 ([2]; EC50 (mM)): 0.03 mM

Structure (SMILES): Nc1nc2c(ncn2[C@@H]2O[C@H](COP(=O)(O)O)[C@@H](O)[C@H]2O)c(=O)[nH]1 [GMP, guanosine monophosphate, reference compound]
- EC50 [2, 3]: 0.02 mM

Structure (SMILES): Nc1nc2c(ncn2[C@@H]2O[C@H](COP(=O)(O)OP(=O)(O)O)[C@@H](O)[C@H]2O)c(=O)[nH]1 [Guanosine 5′-diphosphate sodium salt, Guanosine 5′-diphosphate]
- Thres [2]: 0.050 mM

Structure (SMILES): Nc1nc2c(ncn2[C@@H]2O[C@H](COP(=O)(O)OP(=O)(O)OP(=O)(O)O)[C@@H](O)[C@H]2O)c(=O)[nH]1 [Guanosine 5′-triphosphate]
- Activity [2]: active
- Thres [2]: 0.175 mM

Structure (SMILES): Nc1nc2c(ncn2[C@@H]2O[C@H](COP(O)(O)=S)C(O)C2O)c(=O)[nH]1 (stereo partly shown) [Guanosine-5′-monophosphorothioate]
- Thres [2]: 0.0025 mM
- function as activators of T1R1/T1R3 [2]: activators of T1R1/T1R3

Structure (SMILES): CNc1ncnc2c1ncn2[C@H]1C[C@H](OP(=O)(O)O)[C@@H](COP(=O)(O)O)O1 [MRS 2179 ammonium salt hydrate, 2′-Deoxy-N^6-methyl adenosine 3′,5′-diphosphate diammonium salt]
- Activity [2]: active
- Thres [2]: 0.013 mM

Structure (SMILES): O=P(O)(O)OC[C@H]1O[C@@H](n2cnc3c(NC4CCCC4)ncnc32)[C@H](O)[C@@H]1O [N6-Cyclopentyladenosine-5′-O-monophosphate]
- Thres [2]: 0.013 mM

Structure (SMILES): CNc1ncnc2c1ncn2[C@@H]1O[C@H](COP(=O)(O)O)[C@@H](O)[C@H]1O [N6-Methyladenosine 5′-monophosphate]
- Thres [2]: 0.020 mM

Structure (SMILES): CC(=O)Nc1nc2c(ncn2[C@@H]2O[C@H](COP(=O)(O)O)[C@@H](O)[C@H]2O)c(=O)[nH]1 [N-Acetyl-5′-GMP]
- Thres [2]: 0.025 mM

Structure (SMILES): NC(=O)c1ncn(C2OC(COP(=O)(O)O)C(O)C2O)n1 (stereo not shown) [Ribavirin 5′-Monophosphate]
- Thres [2]: 0.175 mM

Structure (SMILES): O=c1ccn([C@@H]2O[C@H](COP(=O)(O)O)[C@@H](O)[C@H]2O)c(=O)[nH]1 [UMP, uridine monophosphate, reference compound]
- EC50 ([2]; EC50-with Ala (mM)): > 30 mM

Structure (SMILES): Nc1ncnc2c1ncn2[C@@H]1O[C@H](COP(=O)(O)O)[C@@H](O)[C@H]1O [adenosine monophosphate (AMP), adenosine monophosphate, reference compound]
- EC50 ([2]; EC50-with Ala (mM)): 0.011 mM

Structure (SMILES): O=c1nc[nH]c2c1ncn2C1O[C@H](COP(=O)(O)OP(=O)(O)OP(=O)(O)O)[C@@H](O)[C@H]1O (stereo partly shown) [inosine triphosphate (ITP) trisodium salt]
- Max resp ΔF/F [2]: 0.3 ΔF/F
- Max resp. (ΔF/F) [2]: 0.3 ΔF/F
- Thres [2]: 0.02 mM
- Threshold [2]: 0.02 mM

Structure (SMILES): O=c1[nH]c(=O)c2ncn([C@@H]3O[C@H](COP(=O)(O)O)[C@@H](O)[C@H]3O)c2[nH]1 [xanthosine monophosphate, reference compound]
- Thres [2]: 0.025 mM

Reference: patent publication US20190021380A1 (priority 2014, published 2019)
